In ChEMBL document CHEMBL1128997, “Synthesis and antitumor activity of a new class of water soluble camptothecin derivatives” (Bioorg Med Chem Lett, 1996):

How the values were obtained:
L1210 = test: Compound was tested in vitro for cytotoxicity against L1210 murine leukemia cells.; assay type: functional, cell-based; details: Mus musculus
DNA topoisomerase 1 = target: T1, DNA topoisomerase 1 (Homo sapiens, UniProt P11387); test: Compound was tested in vitro for inhibition of topoisomerase I.
T1 sequence (P11387 whole entry): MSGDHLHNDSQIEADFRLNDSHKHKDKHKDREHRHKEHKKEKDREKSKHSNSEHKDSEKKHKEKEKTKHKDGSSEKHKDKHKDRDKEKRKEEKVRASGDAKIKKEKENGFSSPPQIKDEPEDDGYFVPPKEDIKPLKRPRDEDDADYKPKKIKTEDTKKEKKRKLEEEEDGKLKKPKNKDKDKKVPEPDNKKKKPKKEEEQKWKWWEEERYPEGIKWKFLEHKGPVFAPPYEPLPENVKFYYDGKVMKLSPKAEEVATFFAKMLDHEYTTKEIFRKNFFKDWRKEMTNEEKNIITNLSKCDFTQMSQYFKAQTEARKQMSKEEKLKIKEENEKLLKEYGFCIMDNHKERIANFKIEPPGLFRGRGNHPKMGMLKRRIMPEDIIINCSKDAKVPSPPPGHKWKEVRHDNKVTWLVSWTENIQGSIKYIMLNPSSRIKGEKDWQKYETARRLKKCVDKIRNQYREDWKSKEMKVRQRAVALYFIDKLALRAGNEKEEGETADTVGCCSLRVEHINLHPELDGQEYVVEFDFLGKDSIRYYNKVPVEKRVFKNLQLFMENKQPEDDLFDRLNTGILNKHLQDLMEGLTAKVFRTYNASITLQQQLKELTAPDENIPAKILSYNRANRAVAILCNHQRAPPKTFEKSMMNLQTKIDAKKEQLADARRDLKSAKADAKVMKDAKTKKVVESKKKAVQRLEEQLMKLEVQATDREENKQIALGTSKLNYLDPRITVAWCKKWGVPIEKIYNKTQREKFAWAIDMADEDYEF

Mus musculus [1] = test: Activity against L1210 ascitic leukemia expressed as ratio of the median survival time of treated mice to that of untreated control X 100 after iv administration at a optimal dose of 15 mg/Kg; assay type: functional
Mus musculus [2] = test: Activity against L1210 ascitic leukemia expressed as ratio of the median survival time of treated mice to that of untreated control X 100 after ip administration at a optimal dose of 10 mg/Kg; assay type: functional
Mus musculus [3] = test: Activity against L1210 ascitic leukemia expressed as ratio of the median survival time of treated mice to that of untreated control X 100 after ip administration at a optimal dose of 15 mg/Kg; assay type: functional
Mus musculus [4] = test: Activity against L1210 ascitic leukemia expressed as ratio of the median survival time of treated mice to that of untreated control X 100 after iv administration at a optimal dose of 20 mg/Kg; assay type: functional
Mus musculus [5] = test: Activity against L1210 ascitic leukemia expressed as ratio of the median survival time of treated mice to that of untreated control X 100 after ip administration at a optimal dose of 1.5 mg/Kg; assay type: functional
Mus musculus [6] = test: Activity against L1210 ascitic leukemia expressed as ratio of the median survival time of treated mice to that of untreated control X 100 after iv administration at a optimal dose of 2.5 mg/Kg; assay type: functional

CCc1c2c(nc3cccc(/N=C/N(C)C)c13)-c1cc3c(c(=O)n1C2)COC(=O)[C@]3(O)CC
IC50 (L1210): 0.0524 µM
IC50 (DNA topoisomerase 1): 3.6 µM

CC[C@@]1(O)C(=O)OCc2c1cc1n(c2=O)Cc2cc3c(/N=C/N4CCOCC4)cccc3nc2-1
IC50 (L1210): 0.125 µM
IC50 (DNA topoisomerase 1): 69 µM

CC[C@@]1(O)C(=O)OCc2c1cc1n(c2=O)Cc2cc3c(N/C=N/C)cccc3nc2-1.Cl
IC50 (L1210): 0.052 µM
IC50 (DNA topoisomerase 1): 6.6 µM
T/C (Mus musculus [1]): 167%
T/C (Mus musculus [2]): 169%

CC[C@@]1(O)C(=O)OCc2c1cc1n(c2=O)Cc2cc3c(NC=N)cccc3nc2-1.Cl
IC50 (L1210): 0.0925 µM
IC50 (DNA topoisomerase 1): 20.4 µM
T/C (Mus musculus [1]): 143%
T/C (Mus musculus [3]): 219%

CC[C@@]1(O)C(=O)OCc2c1cc1n(c2=O)Cc2cc3c(/N=C/N(C)C)cccc3nc2-1.Cl
IC50 (L1210): 0.108 µM
IC50 (DNA topoisomerase 1): 19.2 µM
T/C (Mus musculus [4]): 200%
T/C (Mus musculus [3]): 175%

CC[C@@]1(O)C(=O)OCc2c1cc1n(c2=O)Cc2cc3c(/N=C/N(C)c4ccccc4)cccc3nc2-1
IC50 (L1210): 0.0281 µM
IC50 (DNA topoisomerase 1): 2.2 µM

CC[C@@]1(O)C(=O)OCc2c1cc1n(c2=O)Cc2cc3cc(/N=C/N(C)C)ccc3nc2-1
IC50 (L1210): 0.0945 µM
IC50 (DNA topoisomerase 1): 42 µM

CC[C@@]1(O)C(=O)OCc2c1cc1n(c2=O)Cc2cc3c(/N=C(\C)N(C)C)cccc3nc2-1
IC50 (L1210): 0.689 µM
IC50 (DNA topoisomerase 1): 3.5 µM

CC[C@@]1(O)C(=O)OCc2c1cc1n(c2=O)Cc2cc3c(N)cccc3nc2-1 [9-AMINOCAMPTOTHECIN]
IC50 (L1210): 0.0127 µM
IC50 (DNA topoisomerase 1): 4.2 µM
T/C (Mus musculus [5]): 163%
T/C (Mus musculus [6]): 138%
